The values below come from US6544727B1, “Methods and devices for the removal of psoralens from blood products” (Cerus Corporation, priority 1995, dated 2003).

The nature of series [1]: HPLC retention time as rough estimate of hydrophobicity. Format: physicochemical. As to conditions: C-18 reversed phase, methanol/KH2PO4 gradient. How it is done: Adsorption data were then obtained by HPLC analysis on the test and control samples. Specifically, a 200 μl sample volume of PC was removed from each tube following the incubation period (special care being taken to ensure that no adsorbent particles were removed with the test samples). […] The addition of methanol lyses platelets and precipitates plasma proteins so that psoralen contained within the platelets is not excluded by the assay.
Since each of the psoralens were analyzed using the same type of BPLC assay, one can use the psoralens' relative retention times to rank them according to increasing hydrophobicity. […] Strong interactions with cells or plasma proteins could compete with adsorption, thereby interfering with resin binding.

A short description of series [2]: Adsorption capacity of Amberlite adsorbents for Psoralens A, B and C from PC (Table V). Format: physicochemical. As to conditions: batch adsorption. Here is the method: Stock solutions (15 mM) of each psoralen ([…], and C) were prepared in DMSO. […] Thereafter, control samples and test samples were prepared for HPLC analysis. Test samples were prepared by adding a 3.0 mL aliquot of each dilution to a 5 mL polypropylene tube containing 0.1 g of adsorbent; control samples were prepared in an analogous manner with the exception that the adsorbent was omitted. The test and control samples were then incubated for 6 hours at 22° C. by rotating gently on a mixer (Barnstead, Thermolyne Model 400110). […] Adsorption data were then obtained by HPLC analysis on the test and control samples. Specifically, a 200 μl sample volume of PC was removed from each tube following the incubation period (special care being taken to ensure that no adsorbent particles were removed with the test samples). […] The addition of methanol lyses platelets and precipitates plasma proteins so that psoralen contained within the platelets is not excluded by the assay. […] The slopes of the calibration curves were determined by linear least square method (y-intercept constrained to zero). […] The amount (μmoles) of psoralen which the adsorbent had removed from the PC was calculated [V(Co-Cf)]. […] As previously discussed, the slope of the adsorbent isotherm, K (L/g), is termed the adsorption constant and can be determined by a linear regression of the adsorption data.

For the compound `CCN(CC)CCCOc1c2occc2c(Br)c2ccc(=O)oc12` [Psoralen C, 5-bromo-8-(diethylaminopropyloxy)-psoralen], the “HPLC retention time (rough estimate of hydrophobicity)” value in series [1] was 12.0 min. Also, the “ease of removal from PC (in words)” value in series [2] was “most easily removed from PC”.
